Measured values from PubChem BioAssay (NCI).
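Grown in 96-well plates, cells were treated for 48 hours with each compound at five concentrations. Insufficient inhibition: endpoint recorded as highest concentration tested. Abbreviation: GI50, concentration required for 50% inhibition of growth. TGI is the concentration that stops growth completely.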

Legend:
Experiment in all cases: NCI tumour cell line growth inhibition, 48 h
CAKI-1 renal = test system: CAKI-1 renal
786-0 renal = test system: 786-0 renal
UACC-257 melanoma = test system: UACC-257 melanoma
OVCAR-8 ovarian = test system: OVCAR-8 ovarian
SNB-75 CNS = test system: SNB-75 CNS
IGROV1 ovarian = test system: IGROV1 ovarian
OVCAR-5 ovarian = test system: OVCAR-5 ovarian
HT29 colon = test system: HT29 colon

Row | SMILES | GI50 (CAKI-1 renal) [µM] | TGI (CAKI-1 renal) [µM] | GI50 (786-0 renal) [µM] | TGI (786-0 renal) [µM] | GI50 (UACC-257 melanoma) [µM] | TGI (UACC-257 melanoma) [µM] | GI50 (OVCAR-8 ovarian) [µM] | TGI (OVCAR-8 ovarian) [µM] | GI50 (SNB-75 CNS) [µM] | TGI (SNB-75 CNS) [µM] | GI50 (IGROV1 ovarian) [µM] | TGI (IGROV1 ovarian) [µM] | GI50 (OVCAR-5 ovarian) [µM] | TGI (OVCAR-5 ovarian) [µM] | GI50 (HT29 colon) [µM] | TGI (HT29 colon) [µM]
1 | C#Cc1cccc(NC(=O)Nc2ccccc2NC(=O)CCl)c1 | 15.1 | 33.8 | 29.7 | > 82.5 | 26.7 | > 82.5 | 27.1 | > 82.5 | 9.11 | 19.8 | 13.6 | 28 | 17.4 | 41.9 | 27.6 | > 82.5
2 | CC(=O)NNc1nc(C)c(C(/C=C/c2ccc(/C=C/C(=N\NC(=O)c3ccncc3)c3sc(NNC(C)=O)nc3C)cc2)=N/NC(=O)c2ccncc2)s1 | – | > 100 | – | > 100 | – | > 100 | – | > 100 | – | > 100 | – | > 100 | – | > 100 | – | > 100
3 | O=C(Nc1ccc(Cl)c(Cl)c1)Nc1ccc(Cl)c([N+](=O)[O-])c1 | – | – | 1.49 | 5.21 | 2.85 | 7.15 | 1.44 | 8.91 | 4.74 | 24.4 | 1.61 | 6.4 | 2.79 | 9.29 | 1.24 | 4.82
4 | COc1ccc(C(=O)c2cc3c(N)c(C(=O)Nc4cccc(Cl)c4)sc3nc2C)cc1 | 1.28 | > 33.3 | 2.67 | > 33.3 | 30.7 | > 33.3 | 1.89 | > 33.3 | 0.743 | 2.75 | 1.76 | > 33.3 | 1.69 | > 33.3 | 1.2 | > 33.3
5 | COc1ccc(C(=O)CC2(O)C(=O)Nc3c(Cl)ccc(Cl)c32)cc1 (configuration not stated) | 1.75 | > 100 | 6.42 | > 100 | 15.5 | > 100 | 3.62 | 60.3 | 1.89 | > 29.8 | 4.95 | > 100 | 5.23 | > 100 | 0.491 | > 57.9
6 | O=c1ccc2nc(-c3ccccc3)nn(-c3ccccc3)c-2c1 | 1.5 | 2.89 | 1.84 | 3.36 | 1.56 | 2.94 | 2.21 | 5.59 | 4.83 | 11.3 | 1.42 | 3.47 | 2.6 | 7.54 | 1.8 | 3.45
7 | CCN1CCC(C(=O)Nc2n[nH]c3nnc(-c4cccc(F)c4F)cc23)CC1 | > 25 | > 25 | 6.32 | > 25 | 11.9 | > 25 | 9.46 | > 25 | 0.821 | > 19.3 | > 21.4 | > 25 | 13.9 | > 25 | 5.02 | > 25
